Experimental data: patent US9388209B2, “2′, 3′-dideoxy-5-fluorouridine derivatives, a process for the manufacture thereof and application thereof” (ADAM MICKIEWICZ UNIVERSITY, priority 2014, dated 2016)
In brackets after ≈: the same amount, converted by molar mass. Several values for one entry are separate records, joined by “and”; a condition that tells them apart may be missing. Equal values may be shown once.

Experiments:
HeLa (cervical cancer) [1] = test: Cytotoxicity test with sulphorhodamine B, HeLa line; conditions: for IC50: Homo sapiens, 72 h, read-out: Cytotoxic activity IC50 HeLa (cervical cancer), 72 hours incubation, average of three independent determinations
Description: (§1) Cytotoxicity tests were carried out using a standard procedure with sulphorhodamine B. They involved incubation of the cancer cell lines in the logarithmic growth phase for 72 hours with the compound tested and, subsequently, spectrophotometric determination of the degree of cell growth inhibition using adsorption of a dye (sulphorhodamine B) which binds cellular proteins.
(§2) Cells of the cell line tested in the logarithmic growth phase were seeded onto 24-well plates in a quantity of 20,000 cells/2 mL of the growth medium per well and, subsequently, incubated in an incubator at 37° C., in the 5% CO2 atmosphere for 24 hours.
(§3) Solutions of the test compounds were prepared in DMSO in the following concentration range: 0.05; 0.1; 0.5; 1; 5; 10; 50; 100; 500 μM.
(§4) The cells of the lines tested were treated with the solutions of the test compounds in a laminar-flow chamber which ensured sterile working conditions according to the following procedure: the first three wells were used as a blank: they contained 20 μL of DMSO only; successive solutions of the test compound were added to subsequent wells (20 μL), starting with the lowest concentration (three wells for each concentration level). Subsequently, the plates were placed in an incubator for 72 hours.
(§5) After the end of incubation, the adhered cells were fixed by adding 500 μL of cold (4° C. 50% trichloroacetic acid (TCA) and incubated at 4° C. for 1 hour. Subsequently, each well was rinsed with sterile water and dried. The operation was repeated five times. The fixed cells were stained for 30 minutes by adding 500 μL of 0.4% of a dye solution (sulphorhodamine B) dissolved in 1% acetic acid. Any unbound dye was removed by decanting it from the plate, and the cells were washed 4 times with 1% acetic acid. Subsequently, the plates were dried in air for approx. 5 minutes. Any unbound dye was dissolved by adding 1500 μL of 10 mM Tris-base buffer (trishydroxymethylaminomethane) to each well and shaken using an orbital shaker for 5 minutes. Subsequently, 200 μL of solution from each well was transferred to each of two wells on a new 96-well plate and absorption of the solutions was determined spectrophotometrically at a wavelength of 490-530 nm using a plate reader. Percentage inhibition of cell growth by the test compound was calculated assuming the absorption of the control solution as 100%.
(§6) Depending on the type of the cell line, the following growth media were used: • the MCF-7 line was grown in Dulbecco's Modified Eagle's Medium (DME) from Sigma (cat. no. D5796), • the HeLa and Hep-G2 lines were grown in PPMI-1640 Medium from Sigma (cat. no. R8758).

MCF-7 (breast cancer) [2] = test: Cytotoxicity test with sulphorhodamine B, MCF-7 line; conditions: for IC50: Homo sapiens, MCF7, 72 h, read-out: Cytotoxic activity IC50 MCF-7 line (breast cancer), 72 hours incubation, average of three independent determinations
Description: as §1, §2, §3, §4, §5, §6

MCF-7 (breast cancer) [3] = conditions: for Cytotoxic activity IC50 MCF-7 line (breast cancer): human, 72 h
Description: as §1, §2, §3, §4, §5, §6

Hep-G2 (hepatic cancer) = test: Cytotoxicity test with sulphorhodamine B, Hep-G2 line; format: cell-based; conditions: for fold higher activity than AddFU: Hep-G2, ratio of IC50; for IC50: Homo sapiens, HepG2, 72 hours incubation, average of three independent determinations, read-out: Cytotoxic activity IC50 Hep-G2 (hepatic cancer)
Excerpt: The values are average results of three independent determinations.

HeLa (cervical cancer) [4] = conditions: for Cytotoxic activity IC50 HeLa (cervical cancer): human, 72 h
Description: as §1, §2, §3, §4, §5, §6

sarcoma 180 = conditions: literature (Lin et al. 1983); cited from earlier work
[5] = system: L1210 cancer in mice induced by MLV retroviruses; conditions: literature (Colla et al. 1985); cited from earlier work

| SMILES | IC50 (HeLa (cervical cancer) [1]) | IC50 (MCF-7 (breast cancer) [2]) | fold higher activity than AddFU (Hep-G2 (hepatic cancer)) | IC50 (Hep-G2 (hepatic cancer)) | cytotoxic activity in words, cervical cancer cells (HeLa line) (HeLa (cervical cancer) [4]) | also measured |
| --- | --- | --- | --- | --- | --- | --- |
| O=c1[nH]c(=O)n([C@H]2C[C@H](O)[C@@H](CO)O2)cc1F [5-fluoro-2′-deoxyuridine, reference compound] | 3.2 µg/mL and 13 µM | 2.81 µg/mL and 11.4 µM | – | – | – | – |
| C=CC1C[N@@]2CCC1C[C@@H]2[C@@H](OCc1cn(C2CC(n3cc(F)c(=O)[nH]c3=O)OC2CO)nn1)c1ccnc2ccc(OC)cc12 (stereo partly drawn) [PQD5FdU, 5-Fluoro-1-(5-hydroxymethyl-4-{4-[(6-methoxyquinolin-4-yl)-(5-vinyl-1-aza-bicyclo[2.2.2]oct-2-yl)-methoxymethyl]-[1,2,3]triazol-1-yl}-tetrahydrofuran-2-yl)-1H-pyrimidine-2,4-dione] | 2.8 µg/mL and 4.42 µM | 2.9 µg/mL and 4.58 µM | more than twice as high | 6 µg/mL and 9.47 µM | – | cytotoxic activity in words, breast cancer cells (MCF-7 (breast cancer) [3]): medium active |
| C=CC1C[N@@]2CCC1C[C@H]2[C@H](OCc1cn(C2CC(n3cc(F)c(=O)[nH]c3=O)OC2CO)nn1)c1ccnc2ccccc12 (stereo partly drawn) [PCD5FdU, 5-Fluoro-1-(5-hydroxymethyl-4-{4-[quinolin-4-yl-(5-vinyl-1-aza-bicyclo[2.2.2]oct-2-yl)-methoxymethyl]-[1,2,3]triazol-1-yl}-tetrahydrofuran-2-yl)-1H-pyrimidine-2,4-dione] | 21.4 µg/mL and 35.5 µM | 13 µg/mL and 21.5 µM | – | – | medium active | – |
| C=CC1C[N@@]2CCC1C[C@@H]2C(OCc1cn(C2CC(n3cc(F)c(=O)[nH]c3=O)OC2CO)nn1)c1ccnc2ccccc12 (stereo partly drawn) [PCN5FdU, 5-Fluoro-1-(5-hydroxymethyl-4-{4-[quinolin-4-yl-(5-vinyl-1-aza-bicyclo[2.2.2]oct-2-yl)-methoxymethyl]-[1,2,3]triazol-1-yl}-tetrahydrofuran-2-yl)-1H-pyrimidine-2,4-dione] | 27.6 µg/mL and 45.7 µM | 27.2 µg/mL and 45.1 µM | – | – | medium active | – |
| [N-]=[N+]=N[C@H]1C[C@H](n2cc(F)c(=O)[nH]c2=O)O[C@@H]1CO [3′-azido-2′,3′-dideoxy-5-fluorouridine, reference compound] | 3 µg/mL and 11.1 µM | 2.2 µg/mL and 8.11 µM | – | 16 µg/mL and 59 µM | – | activity against sarcoma 180 in vitro, in words (sarcoma 180): weak activity; IC50 against L1210 cancer [5]: 34 µg/mL (≈ 125 µM) |
| O=c1[nH]c(=O)n(C2CC(n3cc(C4CN5CCC4C[C@H]5[C@H](O)c4ccnc5ccccc45)nn3)C(CO)O2)cc1F (stereo partly drawn) [CD5FdU, 5-Fluoro-1-(5-hydroxymethyl-4-{4-[6-(hydroxy-quinolin-4-yl-methyl)-1-aza-bicyclo[2.2.2]oct-3-yl]-[1,2,3]triazol-1-yl}-tetrahydro-furan-2-yl)-1H-pyrimidine-2,4-dione] | 7 µg/mL and 12.4 µM | 6.9 µg/mL and 12.2 µM | – | – | medium active | – |
| O=c1[nH]c(=O)n(C2CC(n3cc(C4CN5CCC4C[C@@H]5[C@@H](O)c4ccnc5ccccc45)nn3)C(CO)O2)cc1F (stereo partly drawn) [CN5FdU, 5-Fluoro-1-(5-hydroxymethyl-4-{4-[6-(hydroxy-quinolin-4-yl-methyl)-1-aza-bicyclo[2.2.2]oct-3-yl]-[1,2,3]triazol-1-yl}-tetrahydro-furan-2-yl)-1H-pyrimidine-2,4-dione] | 7.9 µg/mL and 14 µM | 7 µg/mL and 12.4 µM | – | – | medium active | – |
| COc1ccc2nccc(C(O)[C@@H]3CC4CCN3CC4c3cn(C4CC(n5cc(F)c(=O)[nH]c5=O)OC4CO)nn3)c2c1 (stereo partly drawn) [QN5FdU, 5-Fluoro-1-[4-(4-{6-[hydroxy-(6-methoxyquinolin-4-yl)-methyl]-1-aza-bicyclo[2.2.2]oct-3-yl}-[1,2,3]triazol-1-yl)-5-hydroxymethyl-tetrahydro-furan-2-yl]-1H-pyrimidine-2,4-dione] | 0.16 µg/mL and 270 nM | 0.16 µg/mL and 270 nM | 4 fold | 3.8 µg/mL and 6.4 µM | – | fold higher activity than 5FdU (HeLa (cervical cancer) [1]; ratio of IC50): more than 20 fold; fold higher activity than AddFU (HeLa (cervical cancer) [1]; ratio of IC50): more than 18 fold; fold higher activity than 5FdU (MCF-7 (breast cancer) [2]; MCF-7, ratio of IC50): more than 17.5 fold; fold higher activity than AddFU (MCF-7 (breast cancer) [2]; MCF-7, ratio of IC50): more than 13 fold |
| C=CC1C[N@@]2CCC1C[C@H]2[C@H](OCc1cn(C2CC(n3cc(F)c(=O)[nH]c3=O)OC2CO)nn1)c1ccnc2ccc(OC)cc12 (stereo partly drawn) [PQN5FdU, 5-Fluoro-1-(5-hydroxymethyl-4-{4-[(6-methoxyquinolin-4-yl)-(5-vinyl-1-aza-bicyclo[2.2.2]oct-2-yl)-methoxymethyl]-[1,2,3]triazol-1-yl}-tetrahydrofuran-2-yl)-1H-pyrimidine-2,4-dione] | 1.6 µg/mL to 2.8 µg/mL and 3.16 µM | 0.98 µg/mL to 1.5 µg/mL and 2.37 µM | more than twice as high | 6.2 µg/mL and 9.78 µM | – | Cytotoxic activity IC50 MCF-7 line (breast cancer) (MCF-7 (breast cancer) [3]): 1.5 µg/mL; Cytotoxic activity IC50 HeLa (cervical cancer) (HeLa (cervical cancer) [4]): 2.0 µg/mL |
| COc1ccc2nccc([C@H](O)[C@H]3CC4CC[N@]3CC4c3cn(C4CC(n5cc(F)c(=O)[nH]c5=O)OC4CO)nn3)c2c1 (stereo partly drawn) [QD5FdU, 5-Fluoro-1-[4-(4-{6-[hydroxy-(6-methoxyquinolin-4-yl)-methyl]-1-aza-bicyclo[2.2.2]oct-3-yl}-[1,2,3]triazol-1-yl)-5-hydroxymethyl-tetrahydro-furan-2-yl]-1H-pyrimidine-2,4-dione] | 1.6 µg/mL to 2.8 µg/mL and 2.7 µM | 0.98 µg/mL to 1.5 µg/mL and 1.65 µM | – | – | – | Cytotoxic activity IC50 MCF-7 line (breast cancer) (MCF-7 (breast cancer) [3]): 0.98 µg/mL; Cytotoxic activity IC50 HeLa (cervical cancer) (HeLa (cervical cancer) [4]): 1.6 µg/mL |
